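Results reflect a 48-hour exposure of cells in 96-well plates to compound at five concentrations. At the GI50, growth is halved. TGI marks complete inhibition of growth.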
Key:
Assay in all cases: growth of human tumour cells (NCI), 48 h
[1] = system: KM12 colon
[2] = system: OVCAR-4 ovarian
[3] = system: SW-620 colon
[4] = system: SF-268 CNS
[5] = system: UACC-62 melanoma
[6] = system: OVCAR-3 ovarian
[7] = system: SR leukemia
[8] = system: SF-539 CNS
[9] = system: HCC-2998 colon
[10] = system: M14 melanoma
[11] = system: MDA-MB-435
[12] = system: NCI-H460 lung
[13] = system: LOX IMVI melanoma
[14] = system: NCI/ADR-RES ovarian
[15] = system: NCI-H226 lung
[16] = system: NCI-H522 lung
[17] = system: UACC-257 melanoma
[18] = system: A498 renal
[19] = system: SF-295 CNS
[20] = system: MDA-MB-231 breast
[21] = system: OVCAR-5 ovarian
[22] = system: MCF7 breast
[23] = system: HS 578T breast
[24] = system: SNB-19 CNS
[25] = system: K-562 leukemia
[26] = system: OVCAR-8 ovarian
[27] = system: HT29 colon
[28] = system: HL-60(TB) leukemia
[29] = system: HCT-116 colon
[30] = system: EKVX NSCLC
[31] = system: MALME-3M melanoma
[32] = system: SK-MEL-28 melanoma
[33] = system: DU-145 prostate
[34] = system: RXF 393 renal
[35] = system: PC-3 prostate
[36] = system: SN12C renal
[37] = system: HOP-92 NSCLC
[38] = system: SNB-75 CNS
[39] = system: CCRF-CEM leukemia
[40] = system: BT-549 breast
[41] = system: NCI-H23 lung
[42] = system: CAKI-1 renal
[43] = system: T-47D breast
[44] = system: ACHN renal
[45] = system: HOP-62 NSCLC
[46] = system: UO-31 renal
[47] = system: RPMI-8226 leukemia
[48] = system: SK-MEL-2 melanoma
[49] = system: COLO 205 colon
[50] = system: 786-0 renal
[51] = system: IGROV1 ovarian
[52] = system: MOLT-4 leukemia
[53] = system: SK-MEL-5 melanoma
[54] = system: A549 NSCLC
[55] = system: SK-OV-3 ovarian

SMILES: O=C1c2ccc3c4c(ccc(c24)C(=O)N1CCCNCc1ccccc1F)C(=O)N(CCCNCc1ccccc1F)C3=O
- GI50 [1]: 127 nM
- TGI [1]: 285 nM
- GI50 [2]: 109 nM
- TGI [2]: 237 nM
- GI50 [3]: 75.4 nM
- TGI [3]: 274 nM
- GI50 [4]: 208 nM
- TGI [4]: 534 nM
- GI50 [5]: 179 nM
- TGI [5]: 335 nM
- GI50 [6]: 189 nM
- TGI [6]: 557 nM
- GI50 [7]: 123 nM
- TGI [7]: 614 nM
- GI50 [8]: 208 nM
- TGI [8]: 464 nM
- GI50 [9]: 158 nM
- TGI [9]: 312 nM
- GI50 [10]: 152 nM
- TGI [10]: 293 nM
- GI50 [11]: 175 nM
- TGI [11]: 359 nM
- GI50 [12]: 154 nM
- TGI [12]: 504 nM
- GI50 [13]: 121 nM
- TGI [13]: 317 nM
- GI50 [14]: 206 nM
- TGI [14]: 726 nM
- GI50 [15]: 210 nM
- TGI [15]: 482 nM
- GI50 [16]: 154 nM
- TGI [16]: 298 nM
- GI50 [17]: 172 nM
- TGI [17]: 340 nM
- GI50 [18]: 310 nM
- TGI [18]: 1720 nM
- GI50 [19]: 176 nM
- TGI [19]: 409 nM
- GI50 [20]: 250 nM
- TGI [20]: 717 nM
- GI50 [21]: 200 nM
- TGI [21]: 449 nM
- GI50 [22]: 109 nM
- TGI [22]: 359 nM
- GI50 [23]: 523 nM
- TGI [23]: 2860 nM
- GI50 [24]: 136 nM
- TGI [24]: 275 nM
- GI50 [25]: 209 nM
- TGI [25]: 5520 nM
- GI50 [26]: 95.4 nM
- TGI [26]: 422 nM
- GI50 [27]: 49.4 nM
- TGI [27]: 203 nM
- GI50 [28]: 239 nM
- TGI [28]: 542 nM
- GI50 [29]: 67.6 nM
- TGI [29]: 303 nM
- GI50 [30]: 171 nM
- TGI [30]: 331 nM
- GI50 [31]: 151 nM
- TGI [31]: 299 nM
- GI50 [32]: 210 nM
- TGI [32]: 465 nM
- GI50 [33]: 154 nM
- TGI [33]: 287 nM
- GI50 [34]: 138 nM
- TGI [34]: 274 nM
- GI50 [35]: 228 nM
- TGI [35]: 658 nM
- GI50 [36]: 144 nM
- TGI [36]: 296 nM
- GI50 [37]: 238 nM
- TGI [37]: 566 nM
- GI50 [38]: 164 nM
- TGI [38]: 320 nM
- GI50 [39]: 166 nM
- GI50 [40]: 317 nM
- TGI [40]: 767 nM
- GI50 [41]: 171 nM
- TGI [41]: 369 nM
- GI50 [42]: 187 nM
- TGI [42]: 495 nM
- GI50 [43]: 194 nM
- TGI [43]: 417 nM
- GI50 [44]: 127 nM
- TGI [44]: 563 nM
- GI50 [45]: 151 nM
- TGI [45]: 331 nM
- GI50 [46]: 194 nM
- TGI [46]: 468 nM
- GI50 [47]: 272 nM
- TGI [47]: 818 nM
- GI50 [48]: 192 nM
- TGI [48]: 366 nM
- GI50 [49]: 86.3 nM
- TGI [49]: 208 nM
- GI50 [50]: 217 nM
- TGI [50]: 587 nM
- GI50 [51]: 180 nM
- TGI [51]: 543 nM
- GI50 [52]: 144 nM
- TGI [52]: 544 nM
- GI50 [53]: 163 nM
- TGI [53]: 299 nM
- GI50 [54]: 107 nM
- TGI [54]: 294 nM
- GI50 [55]: 249 nM
- TGI [55]: 635 nM

— PubChem BioAssay (NCI)
